Columns and labels:
Assay type in all cases: in vivo
[1] = tested on: Echinochloa crusgalli; assay: Post-emergence test experiment, Echinochloa crusgalli; conditions: 1000 g a.i./ha, 3 weeks in greenhouse, fresh weight inhibition
In short: (§1)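 Pot-grown plants, sown 2 weeks earlier and at 2-3 leaves, received a foliar spray of compound in acetone/tween-80 with methyl oleate adjuvant. Effect was expressed as fresh weight inhibition rate after three further greenhouse weeks.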

[2] = tested on: Digitaria sanguinalis; assay: Post-emergence test experiment, Digitaria sanguinalis; conditions: 1000 g a.i./ha, 3 weeks in greenhouse, fresh weight inhibition
In short: as §1

[3] = tested on: Monocotyledonous and dicotyledonous weed seeds and main crop seeds; assay: Post-emergence test experiment, other weeds and crops (Table 4, 1000 g a.i./ha); conditions: 3 weeks in greenhouse, fresh weight inhibition
In short: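 Weed and crop seeds (wheat, corn, rice, soybean, cotton, oilseed, millet, sorghum) sown in soil pots in a greenhouse and sprayed at 2-3 leaf stage, 2 weeks after sowing. Compound in acetone/tween-80 with methyl oleate concentrate (1.5 L/ha) as synergist. Effect recorded as fresh-weight growth inhibition rate.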

Row | SMILES | Activity level (growth inhibition rate), Echinochloa crusgalli [1] | Activity level (growth inhibition rate), Digitaria sanguinalis [2] | Activity level (growth inhibition rate), Abutilon theophrasti Medic. [3] | Activity level (growth inhibition rate), Galium aparine [3] | Activity level (growth inhibition rate), Monochoria Vaginalis [3]
1 | C[C@@H](Oc1nc(F)c(Cl)c(N)c1Cl)C(=O)OCc1cccs1 [Compound 2-350] | 5 (Level 5: the growth inhibition rate is greater than 85%) | 5 (Level 5: the growth inhibition rate is greater than 85%) | 5 (Level 5: the growth inhibition rate is greater than 85%) | 5 (Level 5: the growth inhibition rate is greater than 85%) | 5 (Level 5: the growth inhibition rate is greater than 85%)
2 | C[C@@H](Oc1nc(F)c(Cl)c(N)c1Cl)C(=O)OCc1ccsc1 [Compound 2-351] | 5 (Level 5: the growth inhibition rate is greater than 85%) | 5 (Level 5: the growth inhibition rate is greater than 85%) | 5 (Level 5: the growth inhibition rate is greater than 85%) | 5 (Level 5: the growth inhibition rate is greater than 85%) | 5 (Level 5: the growth inhibition rate is greater than 85%)
3 | Cc1cc(OC(=O)[C@@H](C)Oc2nc(F)c(Cl)c(N)c2Cl)n(C)n1 [Compound 2-352] | 5 (Level 5: the growth inhibition rate is greater than 85%) | 5 (Level 5: the growth inhibition rate is greater than 85%) | 5 (Level 5: the growth inhibition rate is greater than 85%) | 5 (Level 5: the growth inhibition rate is greater than 85%) | 5 (Level 5: the growth inhibition rate is greater than 85%)
4 | C[C@@H](Oc1nc(F)c(Cl)c(N)c1Cl)C(=O)OCc1ccnn1C [Compound 2-353] | 5 (Level 5: the growth inhibition rate is greater than 85%) | 5 (Level 5: the growth inhibition rate is greater than 85%) | 5 (Level 5: the growth inhibition rate is greater than 85%) | 5 (Level 5: the growth inhibition rate is greater than 85%) | 5 (Level 5: the growth inhibition rate is greater than 85%)
5 | C[C@@H](Oc1nc(F)c(Cl)c(N)c1Cl)C(=O)OCc1cnn(C)c1 [Compound 2-354] | 5 (Level 5: the growth inhibition rate is greater than 85%) | 5 (Level 5: the growth inhibition rate is greater than 85%) | 5 (Level 5: the growth inhibition rate is greater than 85%) | 5 (Level 5: the growth inhibition rate is greater than 85%) | 5 (Level 5: the growth inhibition rate is greater than 85%)
6 | Cc1ccccc1OC(=O)[C@@H](C)Oc1nc(F)c(Cl)c(N)c1Cl [Compound 2-355] | 5 (Level 5: the growth inhibition rate is greater than 85%) | 5 (Level 5: the growth inhibition rate is greater than 85%) | 5 (Level 5: the growth inhibition rate is greater than 85%) | 5 (Level 5: the growth inhibition rate is greater than 85%) | 5 (Level 5: the growth inhibition rate is greater than 85%)
7 | CC(Oc1nc(F)c(Cl)c(N)c1Cl)C(=O)Sc1cccc(Cl)c1 (centres unmarked) [Compound 2-357] | 5 (Level 5: the growth inhibition rate is greater than 85%) | 5 (Level 5: the growth inhibition rate is greater than 85%) | 5 (Level 5: the growth inhibition rate is greater than 85%) | 5 (Level 5: the growth inhibition rate is greater than 85%) | 5 (Level 5: the growth inhibition rate is greater than 85%)
8 | COc1ccc(SC(=O)C(C)Oc2nc(F)c(Cl)c(N)c2Cl)cc1 (centres unmarked) [Compound 2-358] | 5 (Level 5: the growth inhibition rate is greater than 85%) | 5 (Level 5: the growth inhibition rate is greater than 85%) | 5 (Level 5: the growth inhibition rate is greater than 85%) | 5 (Level 5: the growth inhibition rate is greater than 85%) | 5 (Level 5: the growth inhibition rate is greater than 85%)
9 | CC(Oc1nc(F)c(Cl)c(N)c1Cl)C(=O)Sc1cccc(C(C)C)c1 (centres unmarked) [Compound 2-360] | 5 (Level 5: the growth inhibition rate is greater than 85%) | 5 (Level 5: the growth inhibition rate is greater than 85%) | 5 (Level 5: the growth inhibition rate is greater than 85%) | 5 (Level 5: the growth inhibition rate is greater than 85%) | 5 (Level 5: the growth inhibition rate is greater than 85%)
10 | C[C@@H](Oc1nc(F)c(Cl)c(N)c1Cl)C(=O)Sc1ccncc1 [Compound 2-363] | 5 (Level 5: the growth inhibition rate is greater than 85%) | 5 (Level 5: the growth inhibition rate is greater than 85%) | 5 (Level 5: the growth inhibition rate is greater than 85%) | 5 (Level 5: the growth inhibition rate is greater than 85%) | 5 (Level 5: the growth inhibition rate is greater than 85%)
11 | Cc1cn(C)nc1SC(=O)[C@@H](C)Oc1nc(F)c(Cl)c(N)c1Cl [Compound 2-365] | 5 (Level 5: the growth inhibition rate is greater than 85%) | 5 (Level 5: the growth inhibition rate is greater than 85%) | 5 (Level 5: the growth inhibition rate is greater than 85%) | 5 (Level 5: the growth inhibition rate is greater than 85%) | 5 (Level 5: the growth inhibition rate is greater than 85%)
12 | C[C@@H](Oc1nc(F)c(Cl)c(N)c1Cl)C(=O)Sc1cccn1C [Compound 2-368] | 5 (Level 5: the growth inhibition rate is greater than 85%) | 5 (Level 5: the growth inhibition rate is greater than 85%) | 5 (Level 5: the growth inhibition rate is greater than 85%) | 5 (Level 5: the growth inhibition rate is greater than 85%) | 5 (Level 5: the growth inhibition rate is greater than 85%)
13 | CCOCOC(=O)[C@@H](C)Oc1nc(F)c(Cl)c(N)c1Cl [Compound 2-370] | 5 (Level 5: the growth inhibition rate is greater than 85%) | 5 (Level 5: the growth inhibition rate is greater than 85%) | 5 (Level 5: the growth inhibition rate is greater than 85%) | 5 (Level 5: the growth inhibition rate is greater than 85%) | 5 (Level 5: the growth inhibition rate is greater than 85%)
14 | CC(Oc1nc(F)c(Cl)c(N)c1Cl)C(=O)OC(N)C(=O)O (centres unmarked) [Compound 2-371] | 5 (Level 5: the growth inhibition rate is greater than 85%) | 5 (Level 5: the growth inhibition rate is greater than 85%) | 5 (Level 5: the growth inhibition rate is greater than 85%) | 5 (Level 5: the growth inhibition rate is greater than 85%) | 5 (Level 5: the growth inhibition rate is greater than 85%)
15 | COC(=O)C(NC(=O)OC(C)(C)C)OC(=O)C(C)Oc1nc(F)c(Cl)c(N)c1Cl (centres unmarked) [Compound 2-372] | 5 (Level 5: the growth inhibition rate is greater than 85%) | 5 (Level 5: the growth inhibition rate is greater than 85%) | 5 (Level 5: the growth inhibition rate is greater than 85%) | 5 (Level 5: the growth inhibition rate is greater than 85%) | 5 (Level 5: the growth inhibition rate is greater than 85%)
16 | C[C@@H](Oc1nc(F)c(Cl)c(N)c1Cl)C(=O)SC(N)=O [Compound 2-373] | 5 (Level 5: the growth inhibition rate is greater than 85%) | 5 (Level 5: the growth inhibition rate is greater than 85%) | 5 (Level 5: the growth inhibition rate is greater than 85%) | 5 (Level 5: the growth inhibition rate is greater than 85%) | 5 (Level 5: the growth inhibition rate is greater than 85%)

Reference: patent publication US12304890B2, “R-type pyridyloxycarboxylic acid, salt and ester derivative thereof, and preparation method therefor, and herbicidal composition and application thereof” (Qingdao Kingagroot Chemical Compound Co., Ltd., priority 2018, dated 2025)
